Measured values: patent US20230190754A1, “Therapeutic combinations for the treatment of Progressive Fibrosing interstitial lung diseases” (Boehringer Ingelheim International GmbH, priority 2021, published 2023)
Marks after values point to notes of the source that are not given here.

System: IPF patients
Assay: Phase II clinical trial in IPF patients: Treatment Emergent Adverse Events (safety/tolerability), up to 13 weeks
[1] = AF-group (antifibrotic background), 18 mg b.i.d.
[2] = AF-group (antifibrotic background), 18 mg b.i.d., listed as Compound of Formula III
[3] = AF-group (antifibrotic background), 18 mg b.i.d., listed as active agent
[4] = AF-group, nintedanib background medication sub-group, 18 mg b.i.d.
[5] = AF-group, nintedanib background, 18 mg b.i.d.
[6] = AF-group, nintedanib background, 18 mg b.i.d., listed as Compound of Formula III
[7] = AF-group, nintedanib background, 18 mg b.i.d., listed as active agent
[8] = AF-group, nintedanib background, 18 mg b.i.d., listed as compound of formula III
[9] = AF-group, nintedanib background, 18 mg b.i.d., males
[10] = AF-group, pirfenidone background medication sub-group, 18 mg b.i.d.
[11] = AF-group, pirfenidone background, 18 mg b.i.d.

## [O-][S@+]1CCc2nc(N3CCC(c4ncc(Cl)cn4)CC3)nc(NC3(CO)CCC3)c21 [Comp. of form. III]
AF Ninted., N = 26
  Arthralgia, %: (7.7) %
  Bronchitis, %: (3.8) %
  Condition aggravated, %: (3.8) %
  Cough, %: (7.7) %
  Decreased appetite, %: (7.7) %
  Diarrhoea, %: (46.2) %
  Dyspepsia, %: (3.8) %
  Fatigue, %: (3.8) %
  Flatulence, %: (3.8) %
  Gastrointestinal disorders, %: (46.2) %
  General Disorders and Administration Side conditions, %: (19.2) %
  Headache, %: (7.7) %
  Infections and infestations, %: (23.1) %
  Investigations, %: (26.9) %
  Metabolism and nutrition disorders, %: (11.5) %
  Musculoskeletal and connective tissue disorders, %: (7.7) %
  Nasopharyngitis, %: (15.4) %
  Nervous system disorders, %: (15.4) %
  Oedema peripheral, %: (3.8) %
  Pyrexia, %: (2.1) %
  Respiratory, thoracic and mediastinal disorders, %: (11.5) %
  Vomiting, %: (3.8) %
AF Pirf., N = 15
  Abdominal Pain, %: (4.3) %
  Asthenia, %: (4.3) %
  Condition aggravated, %: (4.3) %
  Constipation, %: (4.3) %
  Cough, %: (8.7) %
  Diarrhoea, %: (13.0) %
  Dizziness, %: (4.3) %
  Dyspepsia, %: (4.3) %
  Fatigue, %: (4.3) %
  Flatulence, %: (4.3) %
  Gastrointestinal disorders, %: (26.1) %
  General Disorders and Administration Side conditions, %: (8.7) %
  Headache, %: (4.3) %
  Infections and infestations, %: (4.3) %
  Investigations, %: (13.0) %
  Musculoskeletal and connective tissue disorders, %: (4.3) %
  Nausea, %: (4.3) %
  Nervous system disorders, %: (21.7) %
  Respiratory, thoracic and mediastinal disorders, %: (13.0) %
  Rhinorrhoea, %: (4.3) %
  Vomiting, %: (4.3) %
[1]
  AE resulting in death, patients %: (2.0) %
  AE resulting in death, patients n: 1
  AE: Abdominal pain, patients %: (2.0) %
  AE: Abdominal pain, patients n: 1
  AE: Arthralgia, patients %: (4.1) %
  AE: Arthralgia, patients n: 2
  AE: Asthenia, patients %: (2.0) %
  AE: Asthenia, patients n: 1
  AE: Bronchitis, patients %: (2.0) %
  AE: Bronchitis, patients n: 1
  AE: Condition aggravated, patients %: (4.1) %
  AE: Condition aggravated, patients n: 2
  AE: Constipation, patients %: (2.0) %
  AE: Constipation, patients n: 1
  AE: Cough, patients %: (8.2) %
  AE: Cough, patients n: 4
  AE: Decreased appetite, patients %: (4.1) %
  AE: Decreased appetite, patients n: 2
  AE: Diarrhoea, patients %: 30.6%
  AE: Diarrhoea, patients n: 15
  AE: Dizziness, patients %: (2.0) %
  AE: Dizziness, patients n: 1
  AE: Dyspepsia, patients %: (4.1) %
  AE: Dyspepsia, patients n: 2
  AE: Fatigue, patients %: (2.0) %
  AE: Fatigue, patients n: 1
  AE: Flatulence, patients %: (4.1) %
  AE: Flatulence, patients n: 2
  AE: Gastrointestinal disorders, patients %: 36.7%
  AE: Gastrointestinal disorders, patients n: 18
  AE: General disorders and administration site conditions, patients %: (14.3) %
  AE: General disorders and administration site conditions, patients n: 7
  AE: Headache, patients %: (6.1) %
  AE: Headache, patients n: 3
  AE: Infections and infestations, patients %: (14.3) %
  AE: Infections and infestations, patients n: 7
  AE: Investigations, patients %: (20.4) %
  AE: Investigations, patients n: 10
  AE: Metabolism and nutrition disorders, patients %: (6.1) %
  AE: Metabolism and nutrition disorders, patients n: 3
  AE: Musculoskeletal and connective tissue disorders, patients %: (6.1) %
  AE: Musculoskeletal and connective tissue disorders, patients n: 3
  AE: Nasopharyngitis, patients %: (8.2) %
  AE: Nasopharyngitis, patients n: 4
  AE: Nausea, patients %: (2.0) %
  AE: Nausea, patients n: 1
  AE: Nervous system disorders, patients %: (18.4) %
  AE: Nervous system disorders, patients n: 9
  AE: Oedema peripheral, patients %: (2.0) %
  AE: Oedema peripheral, patients n: 1
  AE: Pyrexia, patients %: (2.0) %
  AE: Pyrexia, patients n: 1
  AE: Respiratory, thoracic and mediastinal disorders, patients %: (12.2) %
  AE: Respiratory, thoracic and mediastinal disorders, patients n: 6
  AE: Rhinorrhoea, patients %: (2.0) %
  AE: Rhinorrhoea, patients n: 1
  AE: Vomiting, patients %: (4.1) %
  AE: Vomiting, patients n: 2
  AE: Weight decreased, patients %: (2.0) %
  AE: Weight decreased, patients n: 1
  AEs leading to discontinuation of trial drug, patients %: (20.4) %
  AEs leading to discontinuation of trial drug, patients n: 10
  Any AE, patients n: 36
  SAE: Condition aggravated, patients %: (4.1) %
  SAE: Condition aggravated, patients n: 2
  SAE: General disorders and administration side conditions, bracketed fatal event [ ]*, patients %: (2.1)]* %
  SAE: General disorders and administration side conditions, bracketed fatal event [ ]*, patients n: [1
  SAE: General disorders and administration side conditions, patients %: (4.1) %
  SAE: General disorders and administration side conditions, patients n: 2
  SAE: Nervous system disorders, patients %: (2.0) %
  SAE: Nervous system disorders, patients n: 1
  SAE: Peripheral nerve paresis, patients %: (2.0) %
  SAE: Peripheral nerve paresis, patients n: 1
  SAE: Vascular disorders, patients %: (2.0) %
  SAE: Vascular disorders, patients n: 1
  SAE: Vasculitis (fatal event), patients %: (2.0)* %
  SAE: Vasculitis (fatal event), patients n: 1
  Serious AEs (patients with ≥1 SAE), patients %: (6.1) %
  Serious AEs (patients with ≥1 SAE), patients n: 3
  Severe AEs, patients %: (4.1) %
  Severe AEs, patients n: 2
AF-group (antifibrotic background), 18 mg b.i.d., listed as Comp. of Form. III
  AE: Diarrhoea, patients %: 30.6%
[2]
  AE: Diarrhoea, patients %: (30.6) %
  AE: Gastrointestinal disorders, patients %: (36.7) %
  Any AE, patients %: (73.5) %
[3]
  AE: Diarrhoea, patients %: 30.6%
  Any AE, patients %: 73.5%
[4]
  AE: Diarrhoea, patients %: 46.2%
  AE: gastrointestinal disorder, patients %: 46.2%
[5]
  Dyspepsia leading to discontinuation of trial treatment, patients %: (3.8) %
  Dyspepsia leading to discontinuation of trial treatment, patients n: 1
  Gastrointestinal disorders leading to discontinuation of trial treatment, patients n: 4
  Patients with AEs leading to discontinuation of the trial drug, %: 26.9%
  Patients with any AE, %: 80.8%
  Patients with investigator defined drug related AEs, %: 46.2%
  Patients with other significant AEs, %: 26.9%
  Patients with pre-specified AEs of special interest, %: 0%
  Patients with serious AEs, %: 3.8%
  Patients with severe AEs, %: 3.8%
  Serious AEs: Congenital anomaly/birth defect, %: 0%
  Serious AEs: Immediately life threatening, %: 0%
  Serious AEs: Other comparable medical criteria, %: 0%
  Serious AEs: Persistent or significant disability, %: 0%
  Serious AEs: Requires or prolongs hospitalization, %: 3.8%
  Serious AEs: Results in Death, %: 0%
[6]
  Diarrhoea leading to discontinuation of trial treatment, patients %: (11.5) %
  Diarrhoea leading to discontinuation of trial treatment, patients n: 3
  Gastrointestinal disorders leading to discontinuation of trial treatment, patients %: (15.4) %
[7]
  Diarrhoea leading to discontinuation of trial treatment, patients n: 3
  Gastrointestinal disorders leading to discontinuation of trial treatment, patients %: 15.4%
[8]
  Diarrhoea leading to discontinuation of trial treatment, patients %: 11.5%
  Gastrointestinal disorders leading to discontinuation of trial treatment, patients %: 15.4%
[9]
  Moderate cases of diarrhoea, %: 2.1%
  Severe case of diarrhoea, %: 1.0%
[10]
  AE: Diarrhoea, patients %: 13.0%
  AE: gastrointestinal disorder, patients %: 26.1%
[11]
  Patients with AEs leading to discontinuation of the trial drug, %: 13.0%
  Patients with any AE, %: 65.2%
  Patients with investigator defined drug related AEs, %: 26.1%
  Patients with other significant AEs, %: 4.3%
  Patients with pre-specified AEs of special interest, %: 4.3%
  Patients with serious AEs, %: 8.7%
  Patients with severe AEs, %: 4.3%
  Serious AEs: Congenital anomaly/birth defect, %: 0%
  Serious AEs: Immediately life threatening, %: 0%
  Serious AEs: Other comparable medical criteria, %: 0%
  Serious AEs: Persistent or significant disability, %: 0%
  Serious AEs: Requires or prolongs hospitalization, %: 8.7%
  Serious AEs: Results in Death, %: 4.3%
AF-group, pirfenidone background, 18 mg b.i.d., listed as active agent
  Gastrointestinal disorders leading to discontinuation of trial treatment, patients (in words): not a single patient
AF-group, pirfenidone background, 18 mg b.i.d., listed as compound of formula III
  Gastrointestinal disorders leading to discontinuation of trial treatment, patients (in words): no discontinuations of the trial treatment at all
Non-AF+AF total, 18 mg b.i.d.
  AE resulting in death, patients %: (2.1) %
  AE resulting in death, patients n: 2
  AE: Abdominal pain, patients %: (2.1) %
  AE: Abdominal pain, patients n: 2
  AE: Arthralgia, patients %: (2.1) %
  AE: Arthralgia, patients n: 2
  AE: Asthenia, patients %: (4.1) %
  AE: Asthenia, patients n: 4
  AE: Bronchitis, patients %: (2.1) %
  AE: Bronchitis, patients n: 2
  AE: Condition aggravated, patients %: (2.1) %
  AE: Condition aggravated, patients n: 2
  AE: Constipation, patients %: (2.1) %
  AE: Constipation, patients n: 2
  AE: Cough, patients %: (7.2) %
  AE: Cough, patients n: 7
  AE: Decreased appetite, patients %: (3.1) %
  AE: Decreased appetite, patients n: 3
  AE: Diarrhoea, patients %: (23.7) %
  AE: Diarrhoea, patients n: 23
  AE: Dizziness, patients %: (2.1) %
  AE: Dizziness, patients n: 2
  AE: Dyspepsia, patients %: (5.2) %
  AE: Dyspepsia, patients n: 5
  AE: Dyspnoea, patients %: (3.1) %
  AE: Dyspnoea, patients n: 3
  AE: Fatigue, patients %: (3.1) %
  AE: Fatigue, patients n: 3
  AE: Flatulence, patients %: (5.2) %
  AE: Flatulence, patients n: 5
  AE: Gastrointestinal disorders, patients %: (32.0) %
  AE: Gastrointestinal disorders, patients n: 31
  AE: General disorders and administration site conditions, patients %: (16.5) %
  AE: General disorders and administration site conditions, patients n: 16
  AE: Headache, patients %: (6.2) %
  AE: Headache, patients n: 6
  AE: Infections and infestations, patients %: (14.4) %
  AE: Infections and infestations, patients n: 14
  AE: Investigations, patients %: (15.5) %
  AE: Investigations, patients n: 15
  AE: Metabolism and nutrition disorders, patients %: (4.1) %
